# In ChEMBL document CHEMBL1201862, “PubChem BioAssay data set” (2004):
# Active and inactive are the calls of the source.
# Tests used:
# Coagulation factor XII = target: T1, Coagulation factor XII (Homo sapiens, UniProt P00748); type: functional;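 further: activated factor XIIa alpha cleaving a fluorogenic AMC peptide substrate; inhibitor potency from loss of enzyme activity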
# T1 sequence (P00748 whole entry): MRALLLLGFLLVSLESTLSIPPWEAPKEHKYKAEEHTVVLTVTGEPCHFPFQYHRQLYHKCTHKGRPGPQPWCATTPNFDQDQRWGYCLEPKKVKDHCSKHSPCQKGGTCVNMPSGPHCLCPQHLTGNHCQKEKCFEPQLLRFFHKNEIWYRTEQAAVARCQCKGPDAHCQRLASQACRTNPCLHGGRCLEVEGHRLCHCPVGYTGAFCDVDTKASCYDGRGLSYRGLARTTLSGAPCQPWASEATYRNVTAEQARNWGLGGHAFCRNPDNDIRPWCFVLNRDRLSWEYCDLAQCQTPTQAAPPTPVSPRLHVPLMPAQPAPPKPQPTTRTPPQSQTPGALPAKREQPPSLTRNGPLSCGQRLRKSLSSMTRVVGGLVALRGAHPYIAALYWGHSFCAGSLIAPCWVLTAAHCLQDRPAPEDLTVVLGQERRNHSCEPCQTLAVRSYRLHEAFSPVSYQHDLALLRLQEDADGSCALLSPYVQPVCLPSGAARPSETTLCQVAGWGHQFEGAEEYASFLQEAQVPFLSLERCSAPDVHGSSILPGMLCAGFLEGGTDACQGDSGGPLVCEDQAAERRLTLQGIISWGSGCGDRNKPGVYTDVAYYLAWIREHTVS
# Cytochrome P450 2C9 = Cytochrome P450 2C9 (Homo sapiens, UniProt P11712)
# Cytochrome P450 1A2 = target: T2, Cytochrome P450 1A2 (Homo sapiens, UniProt P05177);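 further: PubChem cytochrome P450 panel assay, CYP1A2 panel member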
# T2 sequence (P05177 whole entry): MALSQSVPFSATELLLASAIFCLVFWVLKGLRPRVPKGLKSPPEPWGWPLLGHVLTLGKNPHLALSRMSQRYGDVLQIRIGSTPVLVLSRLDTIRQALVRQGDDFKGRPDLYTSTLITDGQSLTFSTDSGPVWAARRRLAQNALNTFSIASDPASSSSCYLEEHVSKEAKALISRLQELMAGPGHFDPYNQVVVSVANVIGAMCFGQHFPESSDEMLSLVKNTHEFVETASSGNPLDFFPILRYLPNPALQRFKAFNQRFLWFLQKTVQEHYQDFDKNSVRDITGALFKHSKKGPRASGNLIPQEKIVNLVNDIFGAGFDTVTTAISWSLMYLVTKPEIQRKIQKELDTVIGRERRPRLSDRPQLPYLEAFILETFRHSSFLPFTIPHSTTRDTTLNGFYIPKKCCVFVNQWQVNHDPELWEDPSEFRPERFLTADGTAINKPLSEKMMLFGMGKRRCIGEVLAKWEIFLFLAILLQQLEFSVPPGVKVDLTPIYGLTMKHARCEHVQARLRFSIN
# Cytochrome P450 3A4 = Cytochrome P450 3A4 (Homo sapiens, UniProt P08684);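 further: CYP3A4 tested as one member of a cytochrome P450 panel screen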
# Large T antigen = Large T antigen (Simian virus 40, UniProt P03070); type: functional, Betapolyomavirus macacae;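 further: Confirmatory-stage PubChem screen for compounds that inhibit SV40 T antigen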
# [1] = target: T3, Rac GTPase-activating protein 1 (Homo sapiens, UniProt Q9H0H5); assay: MgcRacGAP GTPase-activating activity inhibitors, confirmation, biochemical, ADP Hunter fluorescence, primary and confirmatory (AID 624330); type: functional
# T3 sequence (Q9H0H5 whole entry): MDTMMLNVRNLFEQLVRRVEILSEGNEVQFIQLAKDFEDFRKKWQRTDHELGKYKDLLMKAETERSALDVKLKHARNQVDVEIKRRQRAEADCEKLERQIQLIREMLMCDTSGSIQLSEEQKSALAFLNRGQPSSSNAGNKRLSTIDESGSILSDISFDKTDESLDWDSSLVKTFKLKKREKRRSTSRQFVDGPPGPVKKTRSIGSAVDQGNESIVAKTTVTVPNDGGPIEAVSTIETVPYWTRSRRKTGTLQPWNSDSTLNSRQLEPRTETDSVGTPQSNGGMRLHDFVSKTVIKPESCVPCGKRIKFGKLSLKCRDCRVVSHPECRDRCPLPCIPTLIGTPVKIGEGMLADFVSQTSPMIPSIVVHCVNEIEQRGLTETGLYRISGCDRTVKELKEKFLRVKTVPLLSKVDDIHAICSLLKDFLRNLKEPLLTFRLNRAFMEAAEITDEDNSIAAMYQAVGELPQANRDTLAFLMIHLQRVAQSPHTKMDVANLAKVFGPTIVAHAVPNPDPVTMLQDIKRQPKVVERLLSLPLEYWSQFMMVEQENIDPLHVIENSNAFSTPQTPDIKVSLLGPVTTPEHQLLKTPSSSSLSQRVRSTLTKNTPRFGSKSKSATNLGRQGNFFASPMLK
# [2] = growth suppression of PTEN-null colon cells, dose response, cell-based, HCT116 PTEN knockout (AID 1047); type: functional;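 further: HCT116 colon tumor cells with PTEN knocked out; cells exposed to compound for 60 hours before readout; potency for loss of cell viability measured by luminescence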
# [3] = growth suppression of beta-catenin-knockout colon cells, dose response, cell-based, HCT116, human colon tumor (AID 1045); type: functional;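 further: HCT116 colon tumor cells with beta catenin knocked out; cells exposed to compound for 60 hours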
# [4] = target: T4, RNA-binding protein pos-1 (Caenorhabditis elegans, UniProt G5EF15); assay: inhibitors of POS-1/mex-3 RNA binding, dose response, biochemical, fluorescence polarization (AID 1964);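 further: purified POS-1 fused to maltose binding protein made in E. coli; potency of compounds blocking POS-1 binding to fluorescent RNA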
# T4 sequence (G5EF15 whole entry): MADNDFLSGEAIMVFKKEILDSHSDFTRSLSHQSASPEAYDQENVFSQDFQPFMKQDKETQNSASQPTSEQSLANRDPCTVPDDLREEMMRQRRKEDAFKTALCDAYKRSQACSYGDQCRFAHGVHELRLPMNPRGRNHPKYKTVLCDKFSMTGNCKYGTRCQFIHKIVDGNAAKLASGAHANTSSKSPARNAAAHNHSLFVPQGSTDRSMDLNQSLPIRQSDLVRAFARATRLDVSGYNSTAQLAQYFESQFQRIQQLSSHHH
# Streptokinase A = target: T5, Streptokinase A (Streptococcus pyogenes serotype M1, UniProt P10520); assay: S. pyogenes streptokinase expression inhibitors, potency, dose response, plasminogen activation absorbance, OD405 (AID 1914); type: functional, Streptococcus pyogenes M1 GAS;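 further: secreted streptokinase activity via plasminogen activation per viability signal from cell pellet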
# T5 sequence (P10520 whole entry): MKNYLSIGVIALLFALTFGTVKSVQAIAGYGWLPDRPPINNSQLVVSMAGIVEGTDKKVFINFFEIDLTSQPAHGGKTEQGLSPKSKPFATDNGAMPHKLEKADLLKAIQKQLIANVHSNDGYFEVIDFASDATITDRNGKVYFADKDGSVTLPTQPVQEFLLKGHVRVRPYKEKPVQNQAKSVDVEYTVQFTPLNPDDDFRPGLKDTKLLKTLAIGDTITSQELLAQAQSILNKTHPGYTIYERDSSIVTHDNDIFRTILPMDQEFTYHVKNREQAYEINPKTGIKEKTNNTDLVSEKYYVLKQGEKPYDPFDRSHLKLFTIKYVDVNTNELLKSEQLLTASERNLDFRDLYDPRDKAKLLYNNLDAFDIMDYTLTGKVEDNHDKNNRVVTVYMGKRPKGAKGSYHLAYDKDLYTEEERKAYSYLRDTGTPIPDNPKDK
# Streptococcus = assay: Group A Streptococcus viability loss, dose response, counter-screen for streptokinase expression inhibitor project, luminescence, BacTiterGlo (AID 1915); type: functional, organism-based;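 further: potency for reduction of bacterial viability or growth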
# [5] = test system: Streptococcus sp. 'group A'; assay: growth inhibition of control SK(-) GAS strain, dose response, counter-screen for streptokinase expression inhibitor project, luminescence, kanamycin, BacTiterGlo, confirmation (AID 1900); type: functional, organism-based
# [6] = target: T6, Zinc finger protein mex-5 (Caenorhabditis elegans, UniProt Q9XUB2); assay: MEX-5/TCR-2 RNA interaction inhibitors, dose response, biochemical, C. elegans, fluorescence polarization (AID 1960)
# T6 sequence (Q9XUB2 whole entry): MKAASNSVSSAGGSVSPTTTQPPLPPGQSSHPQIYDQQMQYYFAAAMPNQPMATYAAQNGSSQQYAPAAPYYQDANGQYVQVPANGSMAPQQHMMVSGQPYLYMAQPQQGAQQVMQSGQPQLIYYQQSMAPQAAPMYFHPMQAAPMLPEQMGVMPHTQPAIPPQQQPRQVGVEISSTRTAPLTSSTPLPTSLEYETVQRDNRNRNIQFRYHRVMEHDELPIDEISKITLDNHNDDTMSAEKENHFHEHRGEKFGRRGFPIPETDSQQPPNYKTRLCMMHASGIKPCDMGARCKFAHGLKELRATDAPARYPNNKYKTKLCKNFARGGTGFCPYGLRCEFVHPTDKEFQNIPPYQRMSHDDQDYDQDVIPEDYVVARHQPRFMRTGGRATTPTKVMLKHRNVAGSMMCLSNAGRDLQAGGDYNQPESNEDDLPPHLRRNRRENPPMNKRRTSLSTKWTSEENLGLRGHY
# Genome polyprotein = Genome polyprotein (dengue virus type 2, UniProt P29990); assay: Dengue-2 NS5 methyltransferase inhibitors, primary screen, biochemical, confirmation dose response (AID 588689); type: functional
# [7] = control 3'UTR Renilla luciferase suppression, dose response, counter-screen for Shn3 inhibitor project, cell-based, Clone20-Shn3RL, cherry-picked (AID 624133); type: functional
# [8] = Shn3 3'UTR reporter inhibitors, dose response, cell-based, Clone20 osteoblasts, firefly luciferase, cherry-picked (AID 624132); type: functional;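 further: firefly luciferase luminescence from reporter carrying the Shn3 3'UTR in osteoblasts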
# [9] = target: FAD-linked sulfhydryl oxidase ALR (Homo sapiens, UniProt P55789); assay: inhibitors of human ALR sulfhydryl oxidase, dose response, biochemical, H2O2 detection, luminescence, cherry-pick (AID 493248)
# Cytochrome P450 2C19 = Cytochrome P450 2C19 (Homo sapiens, UniProt P33261); assay: Cytochrome panel assay with activity outcomes. Panel member name: p450-cyp2c19 Compounds with AC50 equal or less than 10 uM are considered active; type: functional; details: read-out: AC50
# [10] = HEp-2 cell cytotoxicity, dose response, cytotoxicity control for RSV inhibitor project, HTS (AID 2410); type: functional; details: human respiratory syncytial virus
# [11] = target: Luciferin 4-monooxygenase (Photinus pyralis, UniProt P08659); assay: firefly luciferase enzyme inhibitors, dose response, biochemical, luminescence (AID 1891)
# [12] = Luminescence Cell-Based Dose Confirmation HTS to Identify Inhibitors of Platelet Dense Granule Release. [Related pubchem assays: 1663 (Primary HTS), 1678 (Summary of Project)]; type: functional
# Large T antigen, sequence (P03070 whole entry): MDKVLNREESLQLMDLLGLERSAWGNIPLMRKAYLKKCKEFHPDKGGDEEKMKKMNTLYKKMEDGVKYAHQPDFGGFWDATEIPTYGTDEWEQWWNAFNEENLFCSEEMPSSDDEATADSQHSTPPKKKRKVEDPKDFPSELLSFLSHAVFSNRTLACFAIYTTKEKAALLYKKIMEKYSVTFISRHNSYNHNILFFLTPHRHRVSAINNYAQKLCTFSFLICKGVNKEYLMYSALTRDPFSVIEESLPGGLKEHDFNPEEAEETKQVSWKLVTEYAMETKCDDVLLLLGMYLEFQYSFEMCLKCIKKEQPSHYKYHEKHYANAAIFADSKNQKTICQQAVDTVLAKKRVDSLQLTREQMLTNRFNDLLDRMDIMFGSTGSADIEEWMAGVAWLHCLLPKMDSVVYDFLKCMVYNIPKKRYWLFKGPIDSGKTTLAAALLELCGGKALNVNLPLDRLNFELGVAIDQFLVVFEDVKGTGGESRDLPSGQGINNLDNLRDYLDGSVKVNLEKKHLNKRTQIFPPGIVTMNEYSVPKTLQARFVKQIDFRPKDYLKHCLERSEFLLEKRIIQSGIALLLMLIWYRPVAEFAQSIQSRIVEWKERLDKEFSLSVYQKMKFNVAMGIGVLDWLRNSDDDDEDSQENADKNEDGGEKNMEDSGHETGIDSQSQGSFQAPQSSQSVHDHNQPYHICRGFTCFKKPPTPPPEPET
# Genome polyprotein, sequence (P29990 2492-3391 limits assumed): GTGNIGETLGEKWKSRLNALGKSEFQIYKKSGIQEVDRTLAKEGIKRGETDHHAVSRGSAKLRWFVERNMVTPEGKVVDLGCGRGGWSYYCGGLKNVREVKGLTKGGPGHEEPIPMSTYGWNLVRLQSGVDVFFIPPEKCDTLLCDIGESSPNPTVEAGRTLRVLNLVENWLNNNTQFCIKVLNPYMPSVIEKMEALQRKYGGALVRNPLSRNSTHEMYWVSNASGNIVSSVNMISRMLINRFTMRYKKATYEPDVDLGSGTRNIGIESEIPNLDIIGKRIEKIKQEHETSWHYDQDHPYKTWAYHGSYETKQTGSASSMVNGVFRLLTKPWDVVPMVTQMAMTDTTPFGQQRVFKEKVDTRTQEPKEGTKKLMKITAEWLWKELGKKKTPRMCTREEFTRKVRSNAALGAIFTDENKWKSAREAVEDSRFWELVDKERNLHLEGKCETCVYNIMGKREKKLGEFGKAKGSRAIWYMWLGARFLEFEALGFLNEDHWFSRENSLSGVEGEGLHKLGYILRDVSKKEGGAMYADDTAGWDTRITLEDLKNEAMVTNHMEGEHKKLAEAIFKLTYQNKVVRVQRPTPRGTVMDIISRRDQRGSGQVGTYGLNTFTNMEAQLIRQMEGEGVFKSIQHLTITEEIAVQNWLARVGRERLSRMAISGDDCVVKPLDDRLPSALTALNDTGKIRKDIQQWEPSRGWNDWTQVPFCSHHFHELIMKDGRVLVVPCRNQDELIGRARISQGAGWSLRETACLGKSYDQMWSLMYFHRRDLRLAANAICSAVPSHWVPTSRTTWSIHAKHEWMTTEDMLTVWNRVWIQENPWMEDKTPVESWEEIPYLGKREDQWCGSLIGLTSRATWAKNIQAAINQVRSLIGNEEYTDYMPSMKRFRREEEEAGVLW
# Cytochrome P450 3A4, sequence (P08684 whole entry): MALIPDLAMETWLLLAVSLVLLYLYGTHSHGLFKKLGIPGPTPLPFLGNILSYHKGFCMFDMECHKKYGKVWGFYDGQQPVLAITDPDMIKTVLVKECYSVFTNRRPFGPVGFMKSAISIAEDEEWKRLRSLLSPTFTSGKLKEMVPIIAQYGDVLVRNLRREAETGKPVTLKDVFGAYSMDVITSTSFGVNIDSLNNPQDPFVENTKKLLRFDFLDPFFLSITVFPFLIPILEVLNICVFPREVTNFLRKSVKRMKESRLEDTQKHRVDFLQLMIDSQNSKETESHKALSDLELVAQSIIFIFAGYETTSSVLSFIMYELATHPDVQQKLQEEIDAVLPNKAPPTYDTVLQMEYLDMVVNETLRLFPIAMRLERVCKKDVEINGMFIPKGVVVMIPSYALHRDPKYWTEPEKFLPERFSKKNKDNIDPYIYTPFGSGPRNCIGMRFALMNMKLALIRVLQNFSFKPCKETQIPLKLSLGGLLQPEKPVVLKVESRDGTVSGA
# Cytochrome P450 2C9, sequence (P11712 whole entry): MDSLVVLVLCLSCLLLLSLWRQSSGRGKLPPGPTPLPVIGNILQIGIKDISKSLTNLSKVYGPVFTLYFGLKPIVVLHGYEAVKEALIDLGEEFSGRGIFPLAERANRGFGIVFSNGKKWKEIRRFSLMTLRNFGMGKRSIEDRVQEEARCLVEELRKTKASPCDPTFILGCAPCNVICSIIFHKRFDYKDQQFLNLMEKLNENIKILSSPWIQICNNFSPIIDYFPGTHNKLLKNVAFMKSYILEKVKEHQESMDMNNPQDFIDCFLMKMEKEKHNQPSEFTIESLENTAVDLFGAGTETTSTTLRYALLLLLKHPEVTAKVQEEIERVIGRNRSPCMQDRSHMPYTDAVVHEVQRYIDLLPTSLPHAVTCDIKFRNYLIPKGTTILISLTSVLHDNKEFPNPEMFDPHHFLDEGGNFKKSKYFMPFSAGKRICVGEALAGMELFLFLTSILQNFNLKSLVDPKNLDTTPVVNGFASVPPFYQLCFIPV
# Luciferin 4-monooxygenase, sequence (P08659 whole entry): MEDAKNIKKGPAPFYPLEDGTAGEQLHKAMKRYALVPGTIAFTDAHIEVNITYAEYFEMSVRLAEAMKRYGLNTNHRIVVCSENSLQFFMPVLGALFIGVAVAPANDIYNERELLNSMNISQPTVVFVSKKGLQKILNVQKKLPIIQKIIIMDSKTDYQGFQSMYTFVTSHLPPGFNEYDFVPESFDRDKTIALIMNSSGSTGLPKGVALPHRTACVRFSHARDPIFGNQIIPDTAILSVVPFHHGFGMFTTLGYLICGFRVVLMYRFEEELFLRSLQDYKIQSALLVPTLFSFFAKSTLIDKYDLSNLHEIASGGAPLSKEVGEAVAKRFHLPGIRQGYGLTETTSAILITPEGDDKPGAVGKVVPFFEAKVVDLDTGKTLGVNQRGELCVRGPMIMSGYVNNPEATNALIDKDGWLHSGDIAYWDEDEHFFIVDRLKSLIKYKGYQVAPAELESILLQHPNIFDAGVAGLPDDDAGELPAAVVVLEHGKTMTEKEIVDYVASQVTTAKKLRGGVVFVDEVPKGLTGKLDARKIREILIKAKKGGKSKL
# Cytochrome P450 2C19, sequence (P33261 whole entry): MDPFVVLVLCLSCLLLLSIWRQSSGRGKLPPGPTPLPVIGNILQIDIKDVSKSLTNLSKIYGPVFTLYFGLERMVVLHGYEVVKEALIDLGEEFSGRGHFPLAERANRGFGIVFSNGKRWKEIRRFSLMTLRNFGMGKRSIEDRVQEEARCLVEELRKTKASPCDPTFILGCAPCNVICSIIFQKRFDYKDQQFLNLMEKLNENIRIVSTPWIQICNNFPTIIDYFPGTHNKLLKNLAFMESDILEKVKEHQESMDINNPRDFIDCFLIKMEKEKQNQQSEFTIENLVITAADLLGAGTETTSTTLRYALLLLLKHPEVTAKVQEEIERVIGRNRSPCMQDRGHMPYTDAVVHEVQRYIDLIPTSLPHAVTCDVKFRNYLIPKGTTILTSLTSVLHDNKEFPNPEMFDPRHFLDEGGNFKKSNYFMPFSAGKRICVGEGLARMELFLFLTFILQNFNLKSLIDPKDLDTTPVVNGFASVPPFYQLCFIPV
# FAD-linked sulfhydryl oxidase ALR, sequence (P55789 whole entry): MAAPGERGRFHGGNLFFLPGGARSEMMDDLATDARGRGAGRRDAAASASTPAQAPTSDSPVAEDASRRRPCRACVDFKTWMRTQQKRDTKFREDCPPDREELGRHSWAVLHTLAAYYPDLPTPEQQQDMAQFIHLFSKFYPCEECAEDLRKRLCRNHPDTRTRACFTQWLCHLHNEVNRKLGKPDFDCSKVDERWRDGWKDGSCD
smiles,measurement,setting,value
O=C(CN=C(S)N(Cc1ccccc1)Cc1ccccc1F)NCCc1ccccc1,IC50,Coagulation factor XII,> 50 µM (inactive)
CC(=O)Nc1ccc(NC(=O)CSc2ncnn2-c2ccccc2)cc1,AC50,Cytochrome P450 2C9,12.6 µM (inconclusive)
same,AC50,Cytochrome P450 1A2,28.2 µM (inconclusive)
same,AC50,Cytochrome P450 3A4,28.2 µM (inconclusive)
same,IC50,Coagulation factor XII,> 50 µM (inactive)
O=C1NC(=S)N(c2ccccc2F)C(=O)/C1=C/Nc1ccc(N2CCOCC2)cc1,IC50,Large T antigen,4.54 µM (active)
COC(=O)CC1C(=O)NCCN1C(=S)Nc1cccc(C)c1 (centres undefined),IC50,Coagulation factor XII,> 50 µM (inactive)
C/N=c1\scc(C)n1/N=C/c1ccc(O)cc1,IC50,[1],20.9 µM (active)
same,IC50,Large T antigen,8.35 µM (active)
Nc1nc(-c2cccs2)c(NC(=O)c2ccccc2)s1,EC50,[2],27.4 µM (active)
same,EC50,[3],23.8 µM (active)
same,IC50,Large T antigen,23.2 µM (active)
Cc1sc(NC(=O)c2ccco2)c(CN2CCN(c3ccc(F)cc3)CC2)c1C,IC50,Coagulation factor XII,> 50 µM (inactive)
O=C(N/N=C/c1cc(Cl)cc([N+](=O)[O-])c1O)C(O)(c1ccccc1)c1ccccc1,EC50,[4],> 300 µM (not active)
same,EC50,Streptokinase A,> 150 µM (not active)
same,EC50,Streptococcus,7.21 µM (active)
same,EC50,[5],3.8 µM (active)
same,EC50,[6],40.2 µM (active)
CCNc1ccc(N=Nc2c(C)n(C)n(-c3ccccc3)c2=O)cc1,IC50,Large T antigen,7.88 µM (active)
CC(C)c1cccc(-c2ccc3c(c2)S(=O)(=O)c2cccc(C(=O)O)c2C3=O)c1,IC50,Genome polyprotein,66.2 µM (active)
CC1CCOC2(O1)C(=O)Nc1ccccc12 (centres undefined),IC50,Coagulation factor XII,> 50 µM (inactive)
O=C1NCCOC(=O)[C@@H](Cc2ccc(F)cc2)CC/C=C/C[C@@H]1CC(=O)N(CCO)Cc1ccccc1,AC50,[7],29.6 µM (active)
same,AC50,[8],> 70 µM (inactive)
O=C(NNc1cc(Br)c(O)c(Br)c1)c1ccccc1,IC50,Genome polyprotein,63.2 µM (active)
same,AC50,[9],192 nM (active)
O=C(N/N=C/c1ccc(O)c(O)c1)c1cccc(S(=O)(=O)N2CCCCC2)c1,IC50,[1],85.3 µM (active)
same,IC50,Large T antigen,4.75 µM (active)
COCCNC(=O)CC(NS(=O)(=O)c1ccc(C)cc1)c1ccco1 (centres undefined),IC50,Coagulation factor XII,> 50 µM (inactive)
O=C(c1ccc2ncsc2c1)N1CCN(c2ccc(O)cc2)CC1,AC50,Cytochrome P450 2C9,1.78 µM (inconclusive)
same,AC50,Cytochrome P450 3A4,3.55 µM (inconclusive)
same,AC50,Cytochrome P450 2C19,20 µM (inconclusive)
same,IC50,Large T antigen,14.4 µM (active)
Cc1ccc2cc(C=C3C(=O)NC(=O)NC3=O)c(O)nc2c1,IC50,Genome polyprotein,79 µM (active)
same,IC50,Large T antigen,> 100 µM (active)
Cc1ccc2nc(NC(=O)C3CCCN(S(=O)(=O)c4cccc5nsnc45)C3)sc2c1 (centres undefined),CC50,[10],29.4 µM (active)
same,IC50,Coagulation factor XII,> 50 µM (inactive)
Cc1c(C(=O)N2CCOCC2)sc2ncnc(N3CCc4ccccc4C3)c12,EC50,[11],> 112 µM (not active)
same,IC50,Coagulation factor XII,> 50 µM (inactive)
same,EC50,[12],> 112 µM (not active)
